Results reported in ChEMBL document CHEMBL3525933 (Drug Metab Dispos, 2012).

What was measured:
[1] = Drug excretion in conventional Wistar rat feces assessed as norathyriol metabolite level at 400 mg/kg, po administered as single dose by HPLC-DAD analysis; format: ADME, organism-based; design: dose 400 mg/kg, route oral; conditions: in vivo
[2] = Cmax in streptozotocin-induced diabetic Wistar rat at 400 mg/kg, po administered as single dose by HPLC-DAD analysis; format: ADME, organism-based; design: dose 400 mg/kg, route oral; conditions: in vivo
[3] = Drug excretion in pseudo-germ free Wistar rat urine assessed as unchanged drug level at 400 mg/kg, po administered as single dose by HPLC-DAD analysis; format: ADME, organism-based; design: dose 400 mg/kg, route oral; conditions: in vivo
[4] = AUC(0 to infinity) in streptozotocin-induced diabetic Wistar rat at 400 mg/kg, po administered as single dose by HPLC-DAD analysis; format: ADME, organism-based; design: time infinity, dose 400 mg/kg, route oral; conditions: plasma
[5] = AUC(0 to t) in conventional Wistar rat at 400 mg/kg, po administered as single dose by HPLC-DAD analysis; format: ADME, organism-based; design: dose 400 mg/kg, route oral; conditions: plasma
[6] = Drug excretion in conventional Wistar rat urine assessed as unchanged drug level at 400 mg/kg, po administered as single dose by HPLC-DAD analysis; format: ADME, organism-based; design: dose 400 mg/kg, route oral; conditions: in vivo
Plasma [7] = test: Drug metabolism in pseudo-germ free Wistar rat plasma assessed as 1,7-dihydroxyxanthone metabolite formation at 400 mg/kg, po administered as single dose by HPLC-DAD analysis; format: ADME, organism-based; design: dose 400 mg/kg, route oral; conditions: in vivo
Plasma [8] = test: Drug metabolism in Wistar rat plasma assessed as retention time by HPLC-DAD analysis; format: ADME, cell-free
[9] = AUC(0 to infinity) in pseudo-germ free Wistar rat at 400 mg/kg, po administered as single dose by HPLC-DAD analysis; format: ADME, organism-based; design: time infinity, dose 400 mg/kg, route oral; conditions: plasma
[10] = AUC(0 to t) in pseudo-germ free Wistar rat at 400 mg/kg, po administered as single dose by HPLC-DAD analysis; format: ADME, organism-based; design: dose 400 mg/kg, route oral; conditions: plasma
[11] = Drug excretion in streptozotocin-induced diabetic Wistar rat feces assessed as 1,7-dihydroxyxanthone metabolite level at 400 mg/kg, po administered as single dose by HPLC-DAD analysis; format: ADME, organism-based; design: dose 400 mg/kg, route oral; conditions: in vivo
[12] = Drug excretion in conventional Wistar rat feces assessed as unchanged drug level at 400 mg/kg, po administered as single dose by HPLC-DAD analysis; format: ADME, organism-based; design: dose 400 mg/kg, route oral; conditions: in vivo
[13] = Tmax in streptozotocin-induced diabetic Wistar rat at 400 mg/kg, po administered as single dose by HPLC-DAD analysis; format: ADME, organism-based; design: dose 400 mg/kg, route oral; conditions: in vivo
[14] = AUC(0 to t) in streptozotocin-induced diabetic Wistar rat at 400 mg/kg, po administered as single dose by HPLC-DAD analysis; format: ADME, organism-based; design: dose 400 mg/kg, route oral; conditions: plasma
Plasma [15] = test: Drug uptake in conventional Wistar rat plasma at 400 mg/kg, po administered as single dose by HPLC-DAD analysis; format: ADME, organism-based; design: dose 400 mg/kg, route oral; conditions: in vivo
Plasma [16] = test: Drug metabolism in streptozotocin-induced diabetic Wistar rat plasma assessed as 1,7-dihydroxyxanthone metabolite formation at 400 mg/kg, po administered as single dose by HPLC-DAD analysis; format: ADME, organism-based; design: dose 400 mg/kg, route oral; conditions: in vivo
[17] = MRT(0 to infinity) in conventional Wistar rat at 400 mg/kg, po administered as single dose by HPLC-DAD analysis; format: ADME, organism-based; design: dose 400 mg/kg, route oral; conditions: in vivo
[18] = MRT(0 to t) in pseudo-germ free Wistar rat at 400 mg/kg, po administered as single dose by HPLC-DAD analysis; format: ADME, organism-based; design: dose 400 mg/kg, route oral; conditions: in vivo
[19] = Apparent oral clearance in streptozotocin-induced diabetic Wistar rat at 400 mg/kg, po administered as single dose by HPLC-DAD analysis; format: ADME, organism-based; design: dose 400 mg/kg, route oral; conditions: in vivo
[20] = Drug excretion in streptozotocin-induced diabetic Wistar rat feces assessed as unchanged drug level at 400 mg/kg, po administered as single dose by HPLC-DAD analysis; format: ADME, organism-based; design: dose 400 mg/kg, route oral; conditions: in vivo
Plasma [21] = test: Drug uptake in pseudo-germ free Wistar rat plasma at 400 mg/kg, po administered as single dose by HPLC-DAD analysis; format: ADME, organism-based; design: dose 400 mg/kg, route oral; conditions: in vivo
Plasma [22] = test: Drug recovery in Wistar rat plasma at 500 ng/ml by HPLC-DAD analysis; format: ADME, cell-free
[23] = Drug excretion in streptozotocin-induced diabetic Wistar rat urine assessed as unchanged drug level at 400 mg/kg, po administered as single dose by HPLC-DAD analysis; format: ADME, organism-based; design: dose 400 mg/kg, route oral; conditions: in vivo
[24] = MRT(0 to t) in streptozotocin-induced diabetic Wistar rat at 400 mg/kg, po administered as single dose by HPLC-DAD analysis; format: ADME, organism-based; design: dose 400 mg/kg, route oral; conditions: in vivo
Plasma [25] = test: Drug recovery in Wistar rat plasma at 2000 ng/ml by HPLC-DAD analysis; format: ADME, cell-free
[26] = Drug excretion in pseudo-germ free Wistar rat urine assessed as 1,7-dihydroxyxanthone metabolite level at 400 mg/kg, po administered as single dose by HPLC-DAD analysis; format: ADME, organism-based; design: dose 400 mg/kg, route oral; conditions: in vivo
[27] = Drug excretion in conventional Wistar rat feces assessed as 1,7-dihydroxyxanthone metabolite level at 400 mg/kg, po administered as single dose by HPLC-DAD analysis; format: ADME, organism-based; design: dose 400 mg/kg, route oral; conditions: in vivo
[28] = Apparent oral clearance in pseudo-germ free Wistar rat at 400 mg/kg, po administered as single dose by HPLC-DAD analysis; format: ADME, organism-based; design: dose 400 mg/kg, route oral; conditions: in vivo
Plasma [29] = test: Stability in Wistar rat plasma measured within three freeze thaw cycles by HPLC-DAD analysis; format: ADME, cell-free
Plasma [30] = test: Drug metabolism in conventional Wistar rat plasma assessed as 1,7-dihydroxyxanthone metabolite formation at 400 mg/kg, po administered as single dose by HPLC-DAD analysis; format: ADME, organism-based; design: dose 400 mg/kg, route oral; conditions: in vivo

- Drug excretion [1]: metabolite_detected
- Cmax [2]: 2000 ng/mL
- Drug excretion [3]: metabolite_detected
- AUC(0-inf) [4]: 8950 ng·h/mL
- AUC(0-t) [5]: 3800 ng·h/mL
- Drug excretion [6]: metabolite_detected
- Drug metabolism (Plasma [7]): metabolite_not_detected
- Retention_time (Plasma [8]): 5.5 min
- AUC(0-inf) [9]: 4340 ng·h/mL
- AUC(0-t) [10]: 4320 ng·h/mL
- Drug excretion [11]: metabolite_not_detected
- Drug excretion [12]: metabolite_detected
- Tmax [13]: 2.25 h
- AUC(0-t) [14]: 8930 ng·h/mL
- Drug uptake (Plasma [15]): Active
- Drug metabolism (Plasma [16]): metabolite_not_detected
- MRT inf [17]: 7.77 h
- MRT last [18]: 7.42 h
- CL/F [19]: 772 mL/min/kg
- Drug excretion [20]: metabolite_detected
- Drug uptake (Plasma [21]): Active
- Drug recovery (Plasma [22]): 75.5%
- Drug excretion [23]: metabolite_detected
- MRT last [24]: 5.4 h
- Drug recovery (Plasma [25]): 75.8%
- Drug excretion [26]: metabolite_not_detected
- Drug excretion [27]: metabolite_not_detected
- CL/F [28]: 1690 mL/min/kg
- Stability (Plasma [29]): Stable
- Drug metabolism (Plasma [30]): metabolite_not_detected
Structure (SMILES): O=c1c2cc(O)c(O)cc2oc2cc(O)c([C@@H]3O[C@H](CO)[C@@H](O)[C@H](O)[C@H]3O)c(O)c12 [MANGIFERIN]
